Results published in ChEMBL document CHEMBL1140511, “Synthesis of (aryloxyacetylamino)-isonicotinic/nicotinic acid analogues as potent hypoxia-inducible factor (HIF)-1alpha inhibitors” (Bioorg Med Chem Lett, 2007).
Calls of active or inactive are those of the source. The rule behind the calls is not given here.

Experiments:
[1] = biological target: T1, Hypoxia-inducible factor 1-alpha (Homo sapiens, UniProt Q16665); assay: Inhibition of hypoxia induced HIF1-alpha transcriptional activity in human Sk-Hep1 cells by reporter gene assay; format: cell-based
[2] = biological target: T1, Hypoxia-inducible factor 1-alpha; assay: Inhibition of hypoxia induced HIF1-alpha transcriptional activity in human Hep3B cells by reporter gene assay; format: cell-based; details: hep 3b2
[3] = biological target: T1, Hypoxia-inducible factor 1-alpha; assay: Inhibition of hypoxia induced HIF1-alpha transcriptional activity in human AGS cells by reporter gene assay; format: cell-based
[4] = Suppression of hypoxia induced VEGF expression in human Hep3B cells by RT-PCR; format: functional, cell-based; details: Hep 3B2
[5] = Suppression of hypoxia induced EPO expression in human Hep3B cells by RT-PCR; format: functional, cell-based; details: Hep 3B2
[6] = Suppression of hypoxia induced GAPDH mRNA expression in human Hep3B cells by RT-PCR; format: functional, cell-based; details: Hep 3B2
[7] = Suppression of hypoxia induced HIF1-alpha mRNA expression in human Hep3B cells by RT-PCR; format: functional, cell-based; details: Hep 3B2

T1 sequence (Q16665 whole entry): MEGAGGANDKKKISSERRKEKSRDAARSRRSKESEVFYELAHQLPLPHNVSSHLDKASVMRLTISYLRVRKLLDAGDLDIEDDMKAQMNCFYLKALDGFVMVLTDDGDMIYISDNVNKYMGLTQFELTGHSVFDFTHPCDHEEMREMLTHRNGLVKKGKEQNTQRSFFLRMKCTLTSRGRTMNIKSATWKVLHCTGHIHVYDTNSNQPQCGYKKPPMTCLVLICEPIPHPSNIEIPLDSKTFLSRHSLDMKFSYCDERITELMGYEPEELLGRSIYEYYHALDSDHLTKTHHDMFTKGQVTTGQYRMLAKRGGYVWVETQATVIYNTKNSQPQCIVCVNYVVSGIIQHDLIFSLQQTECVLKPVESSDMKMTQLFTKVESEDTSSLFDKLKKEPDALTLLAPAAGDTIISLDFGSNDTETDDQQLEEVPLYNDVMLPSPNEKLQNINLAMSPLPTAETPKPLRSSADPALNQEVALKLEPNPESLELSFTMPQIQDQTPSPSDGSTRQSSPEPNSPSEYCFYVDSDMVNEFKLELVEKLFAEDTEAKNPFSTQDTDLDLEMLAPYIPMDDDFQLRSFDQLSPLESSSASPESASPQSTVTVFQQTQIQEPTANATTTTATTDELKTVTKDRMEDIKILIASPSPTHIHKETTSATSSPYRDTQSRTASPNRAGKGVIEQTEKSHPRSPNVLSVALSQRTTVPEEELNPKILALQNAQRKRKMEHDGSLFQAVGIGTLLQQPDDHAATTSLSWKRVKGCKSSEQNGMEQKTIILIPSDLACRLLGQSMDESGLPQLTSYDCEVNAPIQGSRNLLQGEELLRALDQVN

Structure (SMILES)	IC50 [1]	IC50 [2]	IC50 [3]	Activity [4]	Activity [5]	Activity [6]	Activity [7]
O=C(COc1ccc(C23CC4CC(CC(C4)C2)C3)cc1)Nc1cncc(C(=O)NCc2ccco2)c1	4.1 µM	> 30 µM	30 µM	–	–	–	–
NC(=O)c1cncc(NC(=O)COc2ccc(C34CC5CC(CC(C5)C3)C4)cc2)c1	11.9 µM	> 10 µM	0.9 µM	–	–	–	–
O=C(COc1ccc(C23CC4CC(CC(C4)C2)C3)cc1)Nc1cc(C(=O)Nc2ccc(Cl)cc2)ccn1	2.5 µM	> 30 µM	18.6 µM	–	–	–	–
O=C(COc1ccc(C23CC4CC(CC(C4)C2)C3)cc1)Nc1cncc(C(=O)NCCc2ccncc2)c1	> 30 µM	> 30 µM	1.3 µM	–	–	–	–
O=C(COc1ccc(C23CC4CC(CC(C4)C2)C3)cc1)Nc1cc(C(=O)NCCc2ccncc2)ccn1	3.4 µM	3.4 µM	5.2 µM	–	–	–	–
COC(=O)c1ccnc(NC(=O)COc2ccc(C34CC5CC(CC(C5)C3)C4)cc2)c1	1.03 µM	1.2 µM	2 µM	–	–	–	–
O=C(COc1ccc(C23CC4CC(CC(C4)C2)C3)cc1)Nc1cncc(C(=O)NCCCn2ccnc2)c1	1.9 µM	> 10 µM	> 10 µM	–	–	–	–
O=C(COc1ccc(C23CC4CC(CC(C4)C2)C3)cc1)Nc1cccc(C(=O)O)c1	–	0.4 µM	0.35 µM	–	–	–	–
O=C(COc1ccc(C23CC4CC(CC(C4)C2)C3)cc1)Nc1cc(C(=O)O)ccn1	2 µM	1 µM	0.8 µM	–	–	–	–
O=C(COc1ccc(C23CC4CC(CC(C4)C2)C3)cc1)Nc1cc(C(=O)NCCCn2ccnc2)ccn1	0.9 µM	11.2 µM	11 µM	–	–	–	–
NC(=O)c1ccnc(NC(=O)COc2ccc(C34CC5CC(CC(C5)C3)C4)cc2)c1	0.6 µM	3.1 µM	1.8 µM	Dose-dependent effect	Dose-dependent effect	inactive	inactive
O=C(COc1ccc(C23CC4CC(CC(C4)C2)C3)cc1)Nc1cncc(C(=O)O)c1	> 30 µM	> 30 µM	> 30 µM	–	–	–	–
O=C(COc1ccc(C23CC4CC(CC(C4)C2)C3)cc1)Nc1cc(C(=O)NCc2ccco2)ccn1	> 30 µM	> 30 µM	> 30 µM	–	–	–	–
COC(=O)c1cccc(NC(=O)COc2ccc(C34CC5CC(CC(C5)C3)C4)cc2)c1	–	2.6 µM	0.7 µM	–	–	–	–
COC(=O)c1cncc(NC(=O)COc2ccc(C34CC5CC(CC(C5)C3)C4)cc2)c1	> 30 µM	5.9 µM	5 µM	–	–	–	–
